Measured values taken from PMC2248166, “Quantitative peptide binding motifs for 19 human and mouse MHC class I molecules derived using positional scanning combinatorial peptide libraries” (Immunome Research, 2008).

Tests used:
Format in all cases: binding
[1] = target: HLA A*3001 (Homo sapiens, UniProt P04439, D140H/D185E/E176W/F33S/G80R/H175R/K168Q/R138E/R41S); assay: biochemical
[2] = target: HLA A*3201 (Homo sapiens, UniProt P04439, A270S/D101S/D185E/E176V/E277Q/F133L/G103R/G107R/G231S/H175R/I121M/I218V/I322F/K168Q/L105A/L300P/L318F/M331R/P208A/P217A/Q94H/R106L/R138Q/S129P/T104I/T323A/T345S/V100E/V321M/V358M); assay: biochemical
[3] = target: HLA A*6802 (Homo sapiens, UniProt P04439, A269V/D140Y/D185E/E176V/E277Q/E87N/F33Y/G231S/I121R/I166T/I218V/L180W/L300P/L318F/N151K/P208A/P217A/Q86R/R138H/R169H/S129P/T345S/V36M)
[4] = target: HLA B*0801 (Homo sapiens, UniProt P01889, A93T/A95T/D138N/E176V/E187T/K202T/Q94N/R180D/S35A/V36M/Y33D/Y91F); assay: biochemical
[5] = target: HLA B*1501 (Homo sapiens, UniProt P01889, A329T/A93T/A95T/C349S/D201E/D98Y/E187L/E204Q/E69M/E70A/K202T/N87E/Q94N/R155S/R180W/S121R/S35A/S48A/V306I/V36M/Y140S/Y91S); assay: biochemical
[6] = target: HLA B*1503 (Homo sapiens, UniProt P01889, A329T/A93T/A95T/C349S/D201E/D98Y/E187L/E204Q/K202T/N87E/Q94N/R155S/R180L/S121R/S35A/V306I/V36M/Y140S/Y91S); assay: biochemical
[7] = target: HLA B*3501 (Homo sapiens, UniProt P01889, A329T/A93T/A95T/C349S/D201E/D98Y/E176V/E187L/E204Q/E69T/I218V/K202T/L119I/Q94N/R155S/R180L/S121R/S35A/S48A/T118I/V127L/V306I/V36M/Y140S/Y91F)
[8] = target: HLA B*5101 (Homo sapiens, UniProt P01889, A329T/A93T/A95T/C349S/D138N/D201E/D98Y/E187L/E204Q/E69T/G107R/I218V/K202T/L105A/L119W/N104I/Q94N/R106L/R155S/R180L/S101N/S121T/S35A/S48A/V306I/V36M/Y195H/Y91F)
[9] = target: HLA B*5301 (Homo sapiens, UniProt P01889, A329T/A93T/A95T/C349S/D201E/D98Y/E176V/E187L/E204Q/E69T/G107R/I218V/K202T/L105A/L119I/N104I/Q94N/R106L/R155S/R180L/S101N/S121R/S35A/S48A/T118I/V127L/V306I/V36M/Y140S/Y91F)
[10] = target: HLA B*5401 (Homo sapiens, UniProt P01889, A329T/C349S/D138N/D201E/E176V/E187T/E204Q/E69G/I76V/K202T/L119W/R155S/R180L/S121T/S35A/S48A/V127L/V306I/V36M/Y140L)
[11] = target: HLA B*5801 (Homo sapiens, UniProt P01889, A329T/C349S/D201E/D98Y/E176V/E187L/E204Q/E69T/G107R/I218V/I90N/K202T/L105A/L119I/N104I/N87E/Q89R/Q94S/R106L/R155S/R180L/R86G/S101N/S121R/S35A/S48A/T118I/V127L/V306I/V36M/Y140S/Y91M)
[12] = target: HLA B*5802 (Homo sapiens, UniProt P01889, A329T/C349S/D201E/D98Y/E176V/E187L/E204Q/E69T/G107R/I218V/I90N/K202T/L105A/N104I/N87E/Q89R/Q94S/R106L/R155S/R180L/R86G/S101N/S121W/S35A/S48A/V127L/V306I/V36M/Y140S/Y91M)
[13] = target: H-2 D^b (Mus musculus, UniProt P01899)
[14] = target: H-2 D^d (Mus musculus, UniProt P01900)
[15] = target: H-2 K^d (Mus musculus, UniProt P01902)
[16] = target: H-2 K^k (Mus musculus, UniProt P04223)
H-2 K^k, sequence (P01887 21-119): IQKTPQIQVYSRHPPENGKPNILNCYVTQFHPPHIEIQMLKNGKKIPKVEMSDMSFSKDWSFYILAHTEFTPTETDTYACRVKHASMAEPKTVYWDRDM
H-2 K^k, sequence (P04223 22-369): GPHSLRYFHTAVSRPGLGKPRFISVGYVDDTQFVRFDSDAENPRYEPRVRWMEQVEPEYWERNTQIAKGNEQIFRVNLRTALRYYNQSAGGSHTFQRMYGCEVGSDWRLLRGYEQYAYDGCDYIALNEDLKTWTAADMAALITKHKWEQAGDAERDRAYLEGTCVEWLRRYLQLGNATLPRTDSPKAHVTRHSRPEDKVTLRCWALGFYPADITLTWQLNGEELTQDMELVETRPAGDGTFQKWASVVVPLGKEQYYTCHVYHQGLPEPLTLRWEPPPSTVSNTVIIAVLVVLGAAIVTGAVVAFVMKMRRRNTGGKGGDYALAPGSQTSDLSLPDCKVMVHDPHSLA

H-2 D^d, sequence (P01900 whole entry, looked up): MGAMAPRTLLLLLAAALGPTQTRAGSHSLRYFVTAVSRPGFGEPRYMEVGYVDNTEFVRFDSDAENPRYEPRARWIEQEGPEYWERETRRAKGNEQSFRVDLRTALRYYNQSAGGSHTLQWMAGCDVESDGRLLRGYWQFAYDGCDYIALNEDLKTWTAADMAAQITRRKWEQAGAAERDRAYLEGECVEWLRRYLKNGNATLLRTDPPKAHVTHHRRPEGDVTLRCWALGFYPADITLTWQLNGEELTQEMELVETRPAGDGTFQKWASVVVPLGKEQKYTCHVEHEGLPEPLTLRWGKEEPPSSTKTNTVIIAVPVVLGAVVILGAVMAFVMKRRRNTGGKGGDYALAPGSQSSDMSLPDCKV
H-2 D^b, sequence (P01887 21-119): as the sequence (P01887 21-119) above
H-2 D^b, sequence (P01899 25-362): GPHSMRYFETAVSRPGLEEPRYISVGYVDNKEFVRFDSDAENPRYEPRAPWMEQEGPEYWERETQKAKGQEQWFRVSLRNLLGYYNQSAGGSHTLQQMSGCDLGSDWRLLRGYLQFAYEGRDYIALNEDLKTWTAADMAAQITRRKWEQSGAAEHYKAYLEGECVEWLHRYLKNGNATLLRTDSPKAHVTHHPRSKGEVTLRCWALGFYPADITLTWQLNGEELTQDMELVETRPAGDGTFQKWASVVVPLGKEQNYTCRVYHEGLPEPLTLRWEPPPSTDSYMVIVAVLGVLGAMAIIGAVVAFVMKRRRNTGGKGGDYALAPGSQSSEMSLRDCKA
H-2 K^d, sequence (P01887 21-119): as the sequence (P01887 21-119) above
H-2 K^d, sequence (P01902 22-368): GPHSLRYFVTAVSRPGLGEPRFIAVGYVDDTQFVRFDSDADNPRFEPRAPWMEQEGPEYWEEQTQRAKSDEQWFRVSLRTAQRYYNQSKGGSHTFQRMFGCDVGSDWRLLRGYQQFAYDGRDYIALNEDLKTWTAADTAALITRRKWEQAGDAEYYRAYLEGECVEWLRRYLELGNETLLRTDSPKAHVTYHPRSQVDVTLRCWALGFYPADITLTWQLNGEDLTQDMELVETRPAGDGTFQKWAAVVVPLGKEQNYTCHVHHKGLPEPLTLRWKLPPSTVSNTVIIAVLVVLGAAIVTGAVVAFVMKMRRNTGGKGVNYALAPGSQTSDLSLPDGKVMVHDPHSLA

Sequence | Normalized average relative binding affinity(ARB) [1] | Normalized average relative binding affinity(ARB) [2] | Normalized average relative binding affinity(ARB) [3] | Normalized average relative binding affinity(ARB) [4] | Normalized average relative binding affinity(ARB) [5] | Normalized average relative binding affinity(ARB) [6] | Normalized average relative binding affinity(ARB) [7] | Normalized average relative binding affinity(ARB) [8] | Normalized average relative binding affinity(ARB) [9] | Normalized average relative binding affinity(ARB) [10] | Normalized average relative binding affinity(ARB) [11] | Normalized average relative binding affinity(ARB) [12] | Normalized average relative binding affinity(ARB) [13] | Normalized average relative binding affinity(ARB) [14] | Normalized average relative binding affinity(ARB) [15] | Normalized average relative binding affinity(ARB) [16]
XXXRXXXXX [3064.0075] | 0.52 | 0.22 | 0.057 | 0.86 | 0.28 | 0.50 | 0.059 | 0.40 | 0.11 | 0.069 | 0.67 | 0.96 | 0.63 | 0.62 | 0.20 | 0.34
XXXSXXXXX [3064.0076] | 0.76 | 0.26 | 1.0 | 0.48 | 1.0 | 0.78 | 0.090 | 0.92 | 0.44 | 0.14 | 0.74 | 1.0 | 0.83 | 0.58 | 0.28 | 0.28
XXXTXXXXX [3064.0077] | 0.44 | 0.31 | 0.20 | 0.52 | 0.39 | 0.41 | 0.54 | 0.77 | 0.25 | 0.61 | 0.27 | 0.74 | 0.58 | 0.66 | 0.21 | 0.19
XXXVXXXXX [3064.0078] | 0.22 | 0.27 | 0.15 | 0.47 | 0.52 | 0.64 | 0.17 | 0.67 | 0.70 | 1.00 | 0.33 | 0.53 | 0.87 | 0.48 | 0.19 | 0.49
XXXWXXXXX [3064.0079] | 0.45 | 0.29 | 0.56 | 0.68 | 0.39 | 0.63 | 0.32 | 0.82 | 1.0 | 1.0 | 0.33 | 0.72 | 0.56 | 0.54 | 0.040 | 1.0
XXXXAXXXX [3064.0081] | 0.48 | 0.14 | 0.48 | 0.029 | 0.64 | 1.0 | 0.57 | 1.0 | 0.13 | 0.29 | 0.28 | 0.56 | 0.046 | 0.37 | 0.37 | 0.14
XXXXCXXXX [3064.0082] | 0.12 | 0.15 | 0.65 | 0.020 | 0.87 | 0.62 | 0.37 | 0.38 | 0.13 | 0.39 | 0.14 | 0.53 | 0.060 | 0.045 | 0.19 | 0.095
XXXXDXXXX [3064.0083] | 0.041 | 0.043 | 0.20 | 0.0054 | 0.17 | 0.23 | 0.25 | 0.34 | 0.13 | 0.27 | 0.11 | 0.12 | 0.058 | 0.049 | 0.15 | 0.026
